From patent publication US20120046301A1, “Substituted Cyclic Carboxamide and Urea Derivatives as Ligands of the Vanilloid Receptor” (Gruenenthal GmbH, priority 2010, published 2012) come the findings set out here.

For one test, the system named is male mice (NMRI). The experiment in a line: Formalin test on mice (second phase). It is filed as in vivo. The settings on record: dose 10.0 mg/kg. How it is done:
The investigation to determine the antinociceptic action of the compounds according to the invention is carried out in the formalin test on male mice (NMRI, 20 bis 30 g body weight, Iffa, Credo, Belgium).
According to D. Dubuisson et al., Pain 1977, 4, 161-174, in the formalin test the first (early) phases ([…] after the formalin injection) and the second (late) phase (15 to 60 minutes after the formalin injection) are different. The early phase, which is a direct reaction to the formalin injection, represents a model of acute pain, whereas the late phase is regarded as a model of persistent (chronic) pain (T. J. Coderre et al., Pain 1993, 52, 259-285). The corresponding literature descriptions are hereby incorporated by way of reference and count as part of the disclosure.
The compounds according to the invention are investigated in the second phase of the formalin test, in order to obtain information on the effects of substances on chronic/inflammation pain.
The administration time of the compounds according to the invention before the formalin injection is selected depending on the type of administration of the compounds according to the invention. The intravenous administration of 10 mg/kg body weight of the test substances is carried out 5 minutes before the formalin injection. […]
The nociceptive behaviour is then continuously assessed by observing the animals for an investigation period of 3 minutes in the (second) late phase of the formalin test (21 to 24 minutes after the formalin injection). The pain behaviour is quantified by counting the time in seconds during which the animals licked and bit the affected paw during the investigation period.
The comparison is made in each case with control animals, which receive instead of the compounds according to the invention a neutral vehicle (0.9% aqueous sodium chloride solution) before the formalin injection. Based on the quantification of the pain behaviour, the effect of the substance in the formalin test is measured as the change compared to the corresponding control. […]
Consider `CC(C)(C)c1cc(CNC(=O)N2CCN(c3ncccc3Cl)CC2)n(-c2cccc(Cl)c2)n1` [Example 2, N-((3-tert-butyl-1-(3-chlorophenyl)-1H-pyrazol-5-yl)methyl)-4-(3-chloropyridin-2-yl)piperazine-1-carboxamide], for which the “FTm, p.o. % effect @ dose (mg/kg)” value came out at 1% @10.0.

The test is the same for the next values; noted with them: dose 30.0 mg/kg.
In the case of `CC(C)(C)c1cc(CNC(=O)N2CCN(c3ncccc3Cl)CC2)n(-c2cccc(Cl)c2)n1` [Example 2, N-((3-tert-butyl-1-(3-chlorophenyl)-1H-pyrazol-5-yl)methyl)-4-(3-chloropyridin-2-yl)piperazine-1-carboxamide], the “FTm, p.o. % effect @ dose (mg/kg)” value was found to be 36% @30.0.

Still in this test, the particulars now being: dose 100.0 mg/kg.
`CC(C)(C)c1cc(CNC(=O)N2CCN(c3ncccc3Cl)CC2)n(-c2cccc(Cl)c2)n1` [Example 2, N-((3-tert-butyl-1-(3-chlorophenyl)-1H-pyrazol-5-yl)methyl)-4-(3-chloropyridin-2-yl)piperazine-1-carboxamide]: the “FTm, p.o. % effect @ dose (mg/kg)” value is recorded as 66% @100.0.

A further test deals with T1, vanilloid receptor 1 (VR1/TRPV1 receptor) (Homo sapiens, UniProt Q8NER1).
T1 construct: expressed in transfected cells; host or cells: CHO K1 cells (ECACC), stably transfected
T1 sequence (Q8NER1 whole entry): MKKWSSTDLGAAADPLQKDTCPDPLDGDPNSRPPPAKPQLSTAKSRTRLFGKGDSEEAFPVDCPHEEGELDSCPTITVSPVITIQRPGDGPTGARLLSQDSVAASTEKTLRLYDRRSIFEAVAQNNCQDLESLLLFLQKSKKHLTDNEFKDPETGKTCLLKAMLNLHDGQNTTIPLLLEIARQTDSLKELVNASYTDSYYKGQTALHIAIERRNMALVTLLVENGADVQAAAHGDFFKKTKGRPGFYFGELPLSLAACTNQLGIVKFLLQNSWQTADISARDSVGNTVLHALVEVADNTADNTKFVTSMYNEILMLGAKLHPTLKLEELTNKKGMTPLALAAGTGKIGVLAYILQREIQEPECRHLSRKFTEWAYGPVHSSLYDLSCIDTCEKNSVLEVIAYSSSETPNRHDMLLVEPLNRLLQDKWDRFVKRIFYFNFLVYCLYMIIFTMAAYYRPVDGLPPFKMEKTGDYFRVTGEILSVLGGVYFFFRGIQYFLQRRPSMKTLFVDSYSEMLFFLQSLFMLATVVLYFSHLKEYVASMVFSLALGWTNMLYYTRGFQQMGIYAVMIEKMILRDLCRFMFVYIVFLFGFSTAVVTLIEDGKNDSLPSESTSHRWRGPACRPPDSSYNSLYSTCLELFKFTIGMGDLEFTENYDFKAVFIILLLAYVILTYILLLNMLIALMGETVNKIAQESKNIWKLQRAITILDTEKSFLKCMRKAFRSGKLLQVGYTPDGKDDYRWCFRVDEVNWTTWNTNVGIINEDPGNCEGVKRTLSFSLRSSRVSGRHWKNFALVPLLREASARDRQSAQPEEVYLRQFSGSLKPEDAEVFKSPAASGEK
Nature of the test: FLIPR assay, CHO K1 cells transfixed with the human VR1 gene, displacement of capsaicin (Pharmacological Method II). It counts as cell-based. The settings on record: capsaicin (Cap) 100 nM, Ki from IC50 by Cheng-Prusoff. How it is done: In addition compounds according to the invention of the general formula (I) may be preferred, that in the FLIPR assay with CHO K1 cells that have been transfixed with the human VR1 gene effect in a concentration of less than 2000 nM, preferably less than 1000 nM, particularly preferably less than 300 nM, most particularly preferably less than 100 nM, even more preferably less than 75 nM, still most preferably less than 50 nM, and most of all preferably less than 10 nM, a 50% displacement of capsaicin that is present in a concentration of 100 nM.
In this connection the Ca^2+ inflow is quantified in the FLIPR assay with the aid of a Ca^2+-sensitive dye (Type Fluo-4, Molecular Probes Europe BV, Leiden, Netherlands) in a fluorescent imaging plate reader (FLIPR, Molecular Devices, Sunnyvale, USA), as described hereinafter.
The agonistic and antagonistic action of the substances to be investigated on the vanilloid receptor (VR1) can also be determined with the following assay. According to this assay the Ca^2+ inflow through the channel is quantified in the Fluorescent Imaging Plate Reader (FLIPR, Molecular Devices, Sunnyvale, USA) with the aid of a Ca^2+ sensitive dye (Type Fluo-4, Molecular Probes, Europe BV, Leiden, Netherlands).
Chinese hamster ovary cells (CHO K1 cells, European Collection of Cell Cultures (ECACC) Great Britain) are stably transfixed with the VR1 gene. For the functional investigations these cells are plated out on poly-D-lysine-coated, black 96-well plates with a clear floor (BD Biosciences, Heidelberg, Germany) in a density of 25,000 cells/well. The cells are incubated overnight at 37° C. and 5% CO2 in a culture medium (Nutrient Mixture ‘am's F12, 10 Vol % FCS (fetal calf serum), 18 μg/ml L-proline. The following day the cells are incubated with Fluo-4 (Fluo-4 2 μM, Pluronic F127 0.01 Vol %, Molecular Probes in HBSS (Hank's buffered saline solution), Gibco Invitrogen GmbH, Karlsruhe, Germany) for 30 minutes at 37° C. The plates are then washed 3 times with HBSS buffer and, after a further incubation for 15 minutes at RT, used in the FLIPR assay for the Ca^2+ measurement. The Ca^2+-dependent fluorescence is in this connection measured both before and after addition of the substances to be investigated (wavelength λex=488 nm, λem=540 nm). The quantification is carried out by measuring the highest fluorescence intensity (FC, Fluorescence Counts) over time.
The FLIPR protocol consists of 2 additions of substances. First of all the compounds to be tested (10 μM) are pipetted onto the cells and the Ca^2+ inflow is compared with the control (capsaicin 10 μM) (% activation referred to the Ca^2+ signal after addition of 10 μM capsaicin). After 5 minutes' incubation 100 nM capsaicin are added and the inflow of Ca^2+ is again determined.
Desensitising agonists and antagonists lead to a suppression of the Ca^2+ inflow. The % inhibition compared to the maximum achievable inhibition with 10 μM capsaicin is calculated.
Starting from the percentage displacement caused by different concentrations of the compounds of the general formula I to be tested, IC50 inhibiting concentrations that produce a 50% displacement of capsaicin were calculated. K, values for the test substances were obtained by reconversion using the (Cheng, Prusoff; Biochem. Pharmacol. 22, 3099-3108, 1973) relationship.
Turning to `CC(C)(C)c1cc(CNC(=O)N2CCN(c3ccc(Cl)cc3)CC2)n(-c2cccc(Cl)c2)n1` [Example 53, N-((3-tert-butyl-1-(3-chlorophenyl)-1H-pyrazol-5-yl)methyl)-4-(4-chlorophenyl)piperazine-1-carboxamide], the inhibition constant (Ki) was found to be 42 nM. Still for that read-out and setting: the same measure for `O=C(NCc1cc(C(F)(F)F)nn1-c1cccc(Cl)c1)N1CCN(c2ccc(F)cc2)CC1` [Example 47, N-((1-(3-chlorophenyl)-3-(trifluoromethyl)-1H-pyrazol-5-yl)methyl)-4-(4-fluorophenyl)piperazine-1-carboxamide]: 48 nM. Same read-out and setting: the same measure for `O=C(NCc1cc(C2CC2)nn1-c1cccc(Cl)c1)N1CCN(c2ncccc2Cl)CC1` [Example 10, N-((1-(3-chlorophenyl)-3-cyclopropyl-1H-pyrazol-5-yl)methyl)-4-(3-chloropyridin-2-yl)piperazine-1-carboxamide]: 85 nM; for `CC(C)(C)c1cc(CNC(=O)N2CCN(c3ccccc3F)CC2)n(-c2cccc(Cl)c2)n1` [Example 5, N-((3-tert-butyl-1-(3-chlorophenyl)-1H-pyrazol-5-yl)methyl)-4-(2-fluorophenyl)piperazine-1-carboxamide]: 5 nM. On to “N-((1-(3-chlorophenyl)-3-(trifluoromethyl)-1H-pyrazol-5-yl)methyl)-4-(1-(4-fluorophenyl)ethyl)piperazine-1-carboxamide [Example 22]”, for which the Ki was 41 nM. Same read-out and setting: under `COc1ccc(N2CCN(C(=O)NCc3cc(C(F)(F)F)nn3-c3cccc(Cl)c3)CC2)cc1` [Example 50, N-((1-(3-chlorophenyl)-3-(trifluoromethyl)-1H-pyrazol-5-yl)methyl)-4-(4-methoxyphenyl)piperazine-1-carboxamide] stands 63 nM; under `CC(C)(C)c1cc(CNC(=O)N2CCN(c3ncccc3Cl)CC2)n(-c2cccc(Cl)c2)n1` [Example 2, N-((3-tert-butyl-1-(3-chlorophenyl)-1H-pyrazol-5-yl)methyl)-4-(3-chloropyridin-2-yl)piperazine-1-carboxamide], 10 nM; under `O=C(NCc1cc(C(F)(F)F)nn1-c1cccc(Cl)c1)N1CCN(c2ncccc2C(F)(F)F)CC1` [Example 56, N-((1-(3-chlorophenyl)-3-(trifluoromethyl)-1H-pyrazol-5-yl)methyl)-4-(3-(trifluoromethyl)pyridin-2-yl)piperazine-1-carboxamide], 4 nM. The same measure, in the same setting: the same measure for `Cc1c(C(F)(F)F)nn(-c2cccc(Cl)c2)c1CNC(=O)N1CCN(c2ncccc2Cl)CC1` [Example 9, N-((1-(3-chlorophenyl)-4-methyl-3-(trifluoromethyl)-1H-pyrazol-5-yl)methyl)-4-(3-chloropyridin-2-yl)piperazine-1-carboxamide]: 16 nM; for `CC(C)(C)c1cc(CNC(=O)N2CCN(c3cccc(Cl)c3)CC2)n(-c2cccc(Cl)c2)n1` [Example 52, N-((3-tert-butyl-1-(3-chlorophenyl)-1H-pyrazol-5-yl)methyl)-4-(3-chlorophenyl)piperazine-1-carboxamide]: 36 nM; for `COc1ccccc1N1CCN(C(=O)NCc2cc(C(F)(F)F)nn2-c2cccc(Cl)c2)CC1` [Example 48, N-((1-(3-chlorophenyl)-3-(trifluoromethyl)-1H-pyrazol-5-yl)methyl)-4-(2-methoxyphenyl)piperazine-1-carboxamide]: 61 nM. Regarding `O=C(NCc1cc(C(F)(F)F)nn1-c1cccc(Cl)c1)N1CCN(c2ccccc2F)CC1` [Example 46, N-((1-(3-chlorophenyl)-3-(trifluoromethyl)-1H-pyrazol-5-yl)methyl)-4-(2-fluorophenyl)piperazine-1-carboxamide], the Ki was found to be 45 nM. Take `O=C(NCc1cc(C(F)(F)F)nn1-c1cccc(Cl)c1)N1CC=C(c2ccc(F)cc2)CC1` [Example 34, N-((1-(3-chlorophenyl)-3-(trifluoromethyl)-1H-pyrazol-5-yl)methyl)-4-(4-fluorophenyl)-5,6-dihydropyridine-1(2H)-carboxamide]: the Ki was determined as 27 nM. Turning to `O=C(NCc1cc(C(F)(F)F)nn1-c1cccc(Cl)c1)N1CCN(c2ccccc2Cl)CC1` [Example 51, 4-(2-chlorophenyl)-N-((1-(3-chlorophenyl)-3-(trifluoromethyl)-1H-pyrazol-5-yl)methyl)piperazine-1-carboxamide], affinity was put at a Ki of 7 nM. For the compound `O=C(NCc1cc(C(F)(F)F)nn1-c1cccc(Cl)c1)N1CCN(c2ncccc2Cl)CC1` [Example 3, N-((1-(3-chlorophenyl)-3-(trifluoromethyl)-1H-pyrazol-5-yl)methyl)-4-(3-chloropyridin-2-yl)piperazine-1-carboxamide], the Ki turned out to be 14 nM. Take `O=C(NCc1cc(C(F)(F)F)nn1-c1cccc(Cl)c1)N1CCN(c2ccc(Cl)cc2)CC1` [Example 54, 4-(4-chlorophenyl)-N-((1-(3-chlorophenyl)-3-(trifluoromethyl)-1H-pyrazol-5-yl)methyl)piperazine-1-carboxamide]: the inhibition constant Ki is 56 nM.

In turn, `CCCCCn1nc(C(F)(F)F)cc1CNC(=O)N1CCN(c2ncccc2Cl)CC1` [Example 12, 4-(3-chloropyridin-2-yl)-N-((1-pentyl-3-(trifluoromethyl)-1H-pyrazol-5-yl)methyl)piperazine-1-carboxamide] returned an inhibition constant (Ki) of 68 nM. The same measure, in the same setting: the same measure for `COc1cccc(N2CCN(C(=O)NCc3cc(C(F)(F)F)nn3-c3cccc(Cl)c3)CC2)c1` [Example 49, N-((1-(3-chlorophenyl)-3-(trifluoromethyl)-1H-pyrazol-5-yl)methyl)-4-(3-methoxyphenyl)piperazine-1-carboxamide]: 35 nM; for `O=C(NCc1cc(C(F)(F)F)nn1-c1cccc(Cl)c1)N1CCC(c2ccccc2)CC1` [Example 26, N-((1-(3-chlorophenyl)-3-(trifluoromethyl)-1H-pyrazol-5-yl)methyl)-4-phenylpiperidine-1-carboxamide]: 27 nM.

Broadly, the Ki is the dissociation constant of the complex between target and ligand, obtained from inhibition or displacement.
